In patent US20130165368A1, “ANTIMICROBIAL COMPOUNDS” (priority 2010, published 2013):
≈ marks a conversion by molar mass, not a printed value. Like-named read-outs stand apart in the source and are kept apart here.

Tests used:
Assay type in all cases: cell-based
MRSA EMRSA 15 21698/98 = test: MIC agar dilution, MRSA strain 41; conditions: Staphylococcus aureus
Method: (§1) Molar equivalent concentrations were used to allow comparison between compounds of differing molecular mass. Due to weighing difficulties, any compound in solid form was melted in a water bath prior to dilution. To make ten-times strength concentrations, which takes into account agar dilution, 0.0352 mmol of each compound was weighed into plastic universal bottles and 4 mL of sterile distilled water (SDW) was added. To produce a homogenous emulsion the universals were vortexed; once achieved the emulsions were serial diluted by adding 2 mL to 2 mL of SDW.
(§2) For every 100 mL of Isosensitest agar (IST) (CM0471; Oxoid, Basingstoke, England), 3.1 g of the IST powder was added to 100 mL SDW (as per manufacturer's instructions) and sterilised for 15 minutes at 121° C. Once sterilised, the molten agar was cooled to 50° C. in a water-bath. Subsequently 4.8 g of CCEY powder (BC2160; Bioconnections, Wetherby, England), also known as Brazier's medium, was added to 100 mL SDW for every 100 mL of agar needed. This was then sterilised for 15 minutes at 121° C. Once sterilised the molten agar was cooled to 50° C. in a water-bath and 4 mL of egg-yolk emulsion (S2073; TCS Biosciences Ltd, Buckingham, United Kingdom) and 1 mL of lysed defibrinated horse blood (HB035; TCS Biosciences Ltd, Buckingham, United Kingdom) were also added for every 100 mL needed. Horse blood lysis is achieved by dilution to half concentration with SDW; when fully lysed the mixture will turn dark red in colour.
(§3) 18 mL agar was added to each universal and then poured into sterile Petri dishes. This step creates a 1/10 dilution resulting in agar plates of the required strength. Control plates for each set of strains were created by adding 18 mL of agar to 2 mL of SDW.
(§4) Suspensions of each bacterial species were prepared with a density equal to that of a 0.5 McFarland standard using a densitometer. All suspensions were made using sterile distilled water and fresh 18-20 hour cultures. As a 0.5 McFarland standard contains 1.5×10^8 CFU/mL and the multipoint inoculators applies 1 μL spots of liquid, each bacterial suspension was diluted 1/15 (20 μL suspension to 280 μL sterile distilled water).
(§5) Bacterial suspensions were prepared from fresh 18-24 hour cultures as previously described. 1 μL of each strain was inoculated onto all 100 agar plates containing a different chemical concentration and the 2 control plates. This was done using a multipoint inoculator which inoculates 20 strains per plate. All plates were incubated for 22 hours at 37° C. in aerobic conditions.
(§6) Each plate was examined for bacterial growth after 22 and 48 hours, with each being incubated in between examinations. A positive result was recorded as growth of ≧10 colonies. A negative result was recorded as growth of <10 colonies as this is equivalent to 99.9% inhibition. The lowest concentration of chemical that inhibited growth was recorded as the MIC. The results are recorded in Table IV below, where the numbers are quoted in mmol/L.
(§7) Given the positive performance of the ethoxylates of lauryl alcohol in reducing the MIC for a number of the micro-organisms tested, further MIC testing of Laureth-1 [C12E1] through to Laureth-8 [C12E8] was conducted on each of the following: • 10 strains of vancomycin-resistant enterococci (VRE)—listed in Table V below; and • 20 strains of methicillin-resistant Staphylococcus aureus (MRSA)—listed in Table VI.
(§8) The alkanol, alkanol derivatives, agar plates, and inocula were all prepared in the same way as described above.
(§9) The plates were examined in the same manner as described above and the results are recorded in Table VII below, where the numbers are quoted in mmol/L.

[1] = tested on: Enterococcus faecium (VRE) MB310; test: MIC agar dilution, VRE strain 29
Method: as §1, §2, §3, §4, §5, §6, §7, §8, §9

[2] = tested on: Enterococcus faecium (VRE) 12185 Clin waste; test: MIC agar dilution, VRE strain 24
Method: as §1, §2, §3, §4, §5, §6, §7, §8, §9

MRSA FIN 54511 (E6) = test: MIC agar dilution, MRSA strain 32; conditions: Staphylococcus aureus
Method: as §1, §2, §3, §4, §5, §6, §7, §8, §9

Candida albicans = test: MIC agar dilution, micro-organism 19 (90028); conditions: Candida albicans 90028, read-out: MIC
Outline: (§10)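 Twofold dilutions of compound emulsions in water were set in Isosensitest agar with Brazier's CCEY medium, egg yolk and lysed horse blood. Spots of 1 µL from 0.5 McFarland suspensions diluted 1/15 were incubated aerobically at 37 °C and read at 22 and 48 h. MIC (mmol/L) was the lowest concentration giving <10 colonies.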

MRSA EMRSA 15 19972/98 = test: MIC agar dilution, MRSA strain 39; conditions: Staphylococcus aureus
Method: as §1, §2, §3, §4, §5, §6, §7, §8, §9

Enterococcus faecalis = test: MIC agar dilution, micro-organism 17 (775); conditions: Enterococcus faecalis 775, read-out: MIC
Outline: as §10

Bacillus subtilis = test: MIC agar dilution, micro-organism 18 (9372); conditions: Bacillus subtilis 9372, read-out: MIC
Outline: as §10

[3] = tested on: MRSA GER 131/98 (Sger Iidc); test: MIC agar dilution, MRSA strain 35; conditions: Staphylococcus aureus
Method: as §1, §2, §3, §4, §5, §6, §7, §8, §9

[4] = tested on: Enterococcus faecium (VRE) MB 305; test: MIC agar dilution, VRE strain 25
Method: as §1, §2, §3, §4, §5, §6, §7, §8, §9

MRSA EMRSA 16 21354/95 = test: MIC agar dilution, MRSA strain 44; conditions: Staphylococcus aureus
Method: as §1, §2, §3, §4, §5, §6, §7, §8, §9

MRSA EMRSA 16 07924/95 = test: MIC agar dilution, MRSA strain 49; conditions: Staphylococcus aureus
Method: as §1, §2, §3, §4, §5, §6, §7, §8, §9

Candida glabrata = test: MIC agar dilution, micro-organism 20 (3943); conditions: Nakaseomyces glabratus, Candida glabrata 3943, read-out: MIC
Outline: as §10

Compound	MIC (MRSA EMRSA 15 21698/98; 22 hrs) [µM]	MIC (MRSA EMRSA 15 21698/98; 48 hrs) [µM]	MIC ([1]; 22 hrs) [µM]	MIC ([1]; 48 hrs) [µM]	MIC ([2]; 22 hrs) [µM]	MIC ([2]; 48 hrs) [µM]	MIC (MRSA FIN 54511 (E6); 22 hrs) [µM]	MIC (MRSA FIN 54511 (E6); 48 hrs) [µM]	MIC (Candida albicans; 22 hrs) [µM]	MIC (Candida albicans; 48 hrs) [µM]	MIC (MRSA EMRSA 15 19972/98; 22 hrs) [µM]	MIC (MRSA EMRSA 15 19972/98; 48 hrs) [µM]	MIC (Enterococcus faecalis; 22 hrs) [µM]	MIC (Enterococcus faecalis; 48 hrs) [µM]	MIC (Bacillus subtilis; 22 hrs) [µM]	MIC (Bacillus subtilis; 48 hrs) [µM]	MIC ([3]; 22 hrs) [µM]	MIC ([3]; 48 hrs) [µM]	MIC ([4]; 22 hrs) [µM]	MIC ([4]; 48 hrs) [µM]	further results
CCCCCCCCCCCCOCCOCCOCCO [L3, Triethylene Glycol Monododecyl Ether]	110 (≈ 35 µg/mL)	110 (≈ 35 µg/mL)	440 (≈ 140 µg/mL)	440 (≈ 140 µg/mL)	880 (≈ 280 µg/mL)	> 880	220 (≈ 70.1 µg/mL)	220 (≈ 70.1 µg/mL)	220 (≈ 70.1 µg/mL)	220 (≈ 70.1 µg/mL)	110 (≈ 35 µg/mL)	110 (≈ 35 µg/mL)	110 (≈ 35 µg/mL)	110 (≈ 35 µg/mL)	110 (≈ 35 µg/mL)	110 (≈ 35 µg/mL)	110 (≈ 35 µg/mL)	110 (≈ 35 µg/mL)	440 (≈ 140 µg/mL)	440 (≈ 140 µg/mL)	MIC (MRSA EMRSA 16 21354/95; 22 hrs): 110 µM (≈ 35 µg/mL); MIC (MRSA EMRSA 16 21354/95; 48 hrs): 110 µM (≈ 35 µg/mL); MIC (MRSA EMRSA 16 07924/95; 22 hrs): 55 µM (≈ 17.5 µg/mL); MIC (MRSA EMRSA 16 07924/95; 48 hrs): 55 µM (≈ 17.5 µg/mL); MIC (Candida glabrata; 22 h, 22 hrs): 110 µM (≈ 35 µg/mL); MIC (Candida glabrata; 48 h, 48 hrs): 110 µM (≈ 35 µg/mL)
CCCCCCCCCCCCOCCOCCOCCOCCO [L4, Tetraethylene Glycol Monododecyl Ether]	55 (≈ 19.9 µg/mL)	55 (≈ 19.9 µg/mL)	110 (≈ 39.9 µg/mL)	110 (≈ 39.9 µg/mL)	220 (≈ 79.8 µg/mL)	440 (≈ 160 µg/mL)	110 (≈ 39.9 µg/mL)	110 (≈ 39.9 µg/mL)	440 (≈ 160 µg/mL)	220 (≈ 79.8 µg/mL)	55 (≈ 19.9 µg/mL)	55 (≈ 19.9 µg/mL)	110 (≈ 39.9 µg/mL)	110 (≈ 39.9 µg/mL)	110 (≈ 39.9 µg/mL)	110 (≈ 39.9 µg/mL)	110 (≈ 39.9 µg/mL)	110 (≈ 39.9 µg/mL)	110 (≈ 39.9 µg/mL)	110 (≈ 39.9 µg/mL)	MIC (MRSA EMRSA 16 21354/95; 22 hrs): 55 µM (≈ 19.9 µg/mL); MIC (MRSA EMRSA 16 21354/95; 48 hrs): 55 µM (≈ 19.9 µg/mL); MIC (MRSA EMRSA 16 07924/95; 22 hrs): 55 µM (≈ 19.9 µg/mL); MIC (MRSA EMRSA 16 07924/95; 48 hrs): 55 µM (≈ 19.9 µg/mL); MIC (Candida glabrata; 22 h, 22 hrs): 110 µM (≈ 39.9 µg/mL); MIC (Candida glabrata; 48 h, 48 hrs): 110 µM (≈ 39.9 µg/mL)
CCCCCCCCCCCCOCCOCCOCCOCCOCCO [L5, Pentaethylene Glycol Monododecyl Ether]	110 (≈ 44.7 µg/mL)	110 (≈ 44.7 µg/mL)	110 (≈ 44.7 µg/mL)	110 (≈ 44.7 µg/mL)	220 (≈ 89.5 µg/mL)	220 (≈ 89.5 µg/mL)	110 (≈ 44.7 µg/mL)	220 (≈ 89.5 µg/mL)	440 (≈ 179 µg/mL)	440 (≈ 179 µg/mL)	110 (≈ 44.7 µg/mL)	110 (≈ 44.7 µg/mL)	110 (≈ 44.7 µg/mL)	110 (≈ 44.7 µg/mL)	110 (≈ 44.7 µg/mL)	110 (≈ 44.7 µg/mL)	110 (≈ 44.7 µg/mL)	110 (≈ 44.7 µg/mL)	110 (≈ 44.7 µg/mL)	110 (≈ 44.7 µg/mL)	MIC (MRSA EMRSA 16 21354/95; 22 hrs): 110 µM (≈ 44.7 µg/mL); MIC (MRSA EMRSA 16 21354/95; 48 hrs): 110 µM (≈ 44.7 µg/mL); MIC (MRSA EMRSA 16 07924/95; 22 hrs): 110 µM (≈ 44.7 µg/mL); MIC (MRSA EMRSA 16 07924/95; 48 hrs): 110 µM (≈ 44.7 µg/mL); MIC (Candida glabrata; 22 h, 22 hrs): 110 µM (≈ 44.7 µg/mL); MIC (Candida glabrata; 48 h, 48 hrs): 220 µM (≈ 89.5 µg/mL)
CCCCCCCCCCCCOCCOCCOCCOCCOCCOCCO [L6, Hexaethylene Glycol Monododecyl Ether]	110 (≈ 49.6 µg/mL)	110 (≈ 49.6 µg/mL)	220 (≈ 99.1 µg/mL)	220 (≈ 99.1 µg/mL)	880 (≈ 397 µg/mL)	880 (≈ 397 µg/mL)	110 (≈ 49.6 µg/mL)	110 (≈ 49.6 µg/mL)	> 880	880 (≈ 397 µg/mL)	110 (≈ 49.6 µg/mL)	110 (≈ 49.6 µg/mL)	110 (≈ 49.6 µg/mL)	110 (≈ 49.6 µg/mL)	110 (≈ 49.6 µg/mL)	110 (≈ 49.6 µg/mL)	110 (≈ 49.6 µg/mL)	110 (≈ 49.6 µg/mL)	220 (≈ 99.1 µg/mL)	220 (≈ 99.1 µg/mL)	MIC (MRSA EMRSA 16 21354/95; 22 hrs): 220 µM (≈ 99.1 µg/mL); MIC (MRSA EMRSA 16 21354/95; 48 hrs): 440 µM (≈ 198 µg/mL); MIC (MRSA EMRSA 16 07924/95; 22 hrs): 110 µM (≈ 49.6 µg/mL); MIC (MRSA EMRSA 16 07924/95; 48 hrs): 110 µM (≈ 49.6 µg/mL); MIC (Candida glabrata; 22 h, 22 hrs): 220 µM (≈ 99.1 µg/mL); MIC (Candida glabrata; 48 h, 48 hrs): 220 µM (≈ 99.1 µg/mL)
CCCCCCCCCCCCOCCOCCOCCOCCOCCOCCOCCO [L7, Heptaethylene Glycol Monododecyl Ether]	440 (≈ 218 µg/mL)	> 440	110 (≈ 54.4 µg/mL)	110 (≈ 54.4 µg/mL)	> 880	> 880	110 (≈ 54.4 µg/mL)	440 (≈ 218 µg/mL)	> 880	> 880	> 440	> 440	110 (≈ 54.4 µg/mL)	110 (≈ 54.4 µg/mL)	110 (≈ 54.4 µg/mL)	110 (≈ 54.4 µg/mL)	110 (≈ 54.4 µg/mL)	220 (≈ 109 µg/mL)	220 (≈ 109 µg/mL)	220 (≈ 109 µg/mL)	MIC (MRSA EMRSA 16 21354/95; 22 hrs): > 440 µM; MIC (MRSA EMRSA 16 21354/95; 48 hrs): > 440 µM; MIC (MRSA EMRSA 16 07924/95; 22 hrs): > 440 µM; MIC (MRSA EMRSA 16 07924/95; 48 hrs): > 440 µM; MIC (Candida glabrata; 22 hrs): > 880 µM; MIC (Candida glabrata; 48 hrs): > 880 µM
